Data: ChEMBL document CHEMBL3880404, “Aminopyrimidines useful as kinase inhibitors” (2007)

What was measured:
[1] = target: T1, Tyrosine-protein kinase JAK3 (Homo sapiens, UniProt P52333); assay: Inhibition of JAK3 (unknown origin) using poly(Glu)4Tyr substrate and [gamma-33P]-ATP incubated for 20 mins by Top-count assay
T1 sequence (P52333 whole entry): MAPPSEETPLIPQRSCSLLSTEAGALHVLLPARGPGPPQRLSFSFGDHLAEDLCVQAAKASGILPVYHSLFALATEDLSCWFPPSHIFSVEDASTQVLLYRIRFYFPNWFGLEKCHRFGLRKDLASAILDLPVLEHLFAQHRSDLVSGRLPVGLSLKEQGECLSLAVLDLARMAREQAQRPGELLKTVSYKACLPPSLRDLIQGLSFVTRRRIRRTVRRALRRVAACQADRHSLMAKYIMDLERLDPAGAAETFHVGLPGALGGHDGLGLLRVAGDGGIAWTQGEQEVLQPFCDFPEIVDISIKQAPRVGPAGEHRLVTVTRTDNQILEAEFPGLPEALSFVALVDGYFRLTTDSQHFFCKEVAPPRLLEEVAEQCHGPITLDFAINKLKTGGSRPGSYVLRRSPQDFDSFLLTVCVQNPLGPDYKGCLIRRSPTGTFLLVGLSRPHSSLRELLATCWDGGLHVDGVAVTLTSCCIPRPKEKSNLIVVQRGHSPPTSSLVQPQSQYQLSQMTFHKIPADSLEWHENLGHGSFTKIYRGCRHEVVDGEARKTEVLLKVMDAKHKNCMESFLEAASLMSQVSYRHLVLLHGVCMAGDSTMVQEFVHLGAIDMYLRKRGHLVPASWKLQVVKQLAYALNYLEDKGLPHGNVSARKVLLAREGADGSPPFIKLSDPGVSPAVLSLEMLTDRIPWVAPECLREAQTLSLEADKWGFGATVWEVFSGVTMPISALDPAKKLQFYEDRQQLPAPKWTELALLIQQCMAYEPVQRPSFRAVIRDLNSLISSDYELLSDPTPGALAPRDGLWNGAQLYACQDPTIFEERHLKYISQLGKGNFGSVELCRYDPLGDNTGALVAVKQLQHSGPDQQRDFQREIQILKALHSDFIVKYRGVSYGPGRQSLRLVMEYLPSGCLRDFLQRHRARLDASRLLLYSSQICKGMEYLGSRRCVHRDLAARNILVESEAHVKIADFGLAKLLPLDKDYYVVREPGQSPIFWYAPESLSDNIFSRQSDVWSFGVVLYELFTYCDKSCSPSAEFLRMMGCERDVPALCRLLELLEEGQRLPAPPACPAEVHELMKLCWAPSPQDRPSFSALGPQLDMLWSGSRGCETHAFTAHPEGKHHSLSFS

[2] = target: Tyrosine-protein kinase JAK2 (Homo sapiens, UniProt O60674); assay: Inhibition of JAK2 (unknown origin) using poly(Glu)4Tyr substrate and [gamma-33P]-ATP incubated for 20 mins by Top-count assay
[3] = target: Aurora kinase B (Homo sapiens, UniProt Q96GD4); assay: Inhibition of Aurora-1 (unknown origin) incubated for 10 mins using Kemptide substrate and [gamma-33P]-ATP measured after 3 hrs by liquid scintillation counting based radiometric assay
[4] = target: T2, Aurora kinase A (Homo sapiens, UniProt O14965); assay: Inhibition of Aurora-2 (unknown origin) pre-incubated with substrate for 10 mins before enzyme addition and measured after 10 mins post enzyme addition using Kemptide substrate by pyruvate kinase and LDH based standard coupled enzyme assay
T2 sequence (O14965 whole entry): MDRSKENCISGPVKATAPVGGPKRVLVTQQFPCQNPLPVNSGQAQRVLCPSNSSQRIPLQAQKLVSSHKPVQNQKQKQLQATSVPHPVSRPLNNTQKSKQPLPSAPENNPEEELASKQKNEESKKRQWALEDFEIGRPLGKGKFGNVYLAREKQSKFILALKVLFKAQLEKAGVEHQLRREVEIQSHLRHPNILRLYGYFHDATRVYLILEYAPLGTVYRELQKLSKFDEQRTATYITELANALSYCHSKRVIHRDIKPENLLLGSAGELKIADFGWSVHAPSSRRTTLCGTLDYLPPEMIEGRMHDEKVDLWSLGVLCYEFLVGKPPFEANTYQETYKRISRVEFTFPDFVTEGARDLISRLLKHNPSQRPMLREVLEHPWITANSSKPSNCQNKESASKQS

Sequence of Aurora kinase B (Q96GD4 whole entry): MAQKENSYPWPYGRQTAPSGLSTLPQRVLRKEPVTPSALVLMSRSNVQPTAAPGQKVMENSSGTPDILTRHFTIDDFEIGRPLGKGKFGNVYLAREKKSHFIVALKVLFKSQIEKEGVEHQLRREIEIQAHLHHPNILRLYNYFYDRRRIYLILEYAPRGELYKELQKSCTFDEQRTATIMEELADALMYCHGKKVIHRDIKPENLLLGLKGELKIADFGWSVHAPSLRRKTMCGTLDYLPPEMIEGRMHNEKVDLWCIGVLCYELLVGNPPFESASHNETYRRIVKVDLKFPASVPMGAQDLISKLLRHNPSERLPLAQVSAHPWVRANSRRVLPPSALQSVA
Sequence of Tyrosine-protein kinase JAK2 (O60674 whole entry): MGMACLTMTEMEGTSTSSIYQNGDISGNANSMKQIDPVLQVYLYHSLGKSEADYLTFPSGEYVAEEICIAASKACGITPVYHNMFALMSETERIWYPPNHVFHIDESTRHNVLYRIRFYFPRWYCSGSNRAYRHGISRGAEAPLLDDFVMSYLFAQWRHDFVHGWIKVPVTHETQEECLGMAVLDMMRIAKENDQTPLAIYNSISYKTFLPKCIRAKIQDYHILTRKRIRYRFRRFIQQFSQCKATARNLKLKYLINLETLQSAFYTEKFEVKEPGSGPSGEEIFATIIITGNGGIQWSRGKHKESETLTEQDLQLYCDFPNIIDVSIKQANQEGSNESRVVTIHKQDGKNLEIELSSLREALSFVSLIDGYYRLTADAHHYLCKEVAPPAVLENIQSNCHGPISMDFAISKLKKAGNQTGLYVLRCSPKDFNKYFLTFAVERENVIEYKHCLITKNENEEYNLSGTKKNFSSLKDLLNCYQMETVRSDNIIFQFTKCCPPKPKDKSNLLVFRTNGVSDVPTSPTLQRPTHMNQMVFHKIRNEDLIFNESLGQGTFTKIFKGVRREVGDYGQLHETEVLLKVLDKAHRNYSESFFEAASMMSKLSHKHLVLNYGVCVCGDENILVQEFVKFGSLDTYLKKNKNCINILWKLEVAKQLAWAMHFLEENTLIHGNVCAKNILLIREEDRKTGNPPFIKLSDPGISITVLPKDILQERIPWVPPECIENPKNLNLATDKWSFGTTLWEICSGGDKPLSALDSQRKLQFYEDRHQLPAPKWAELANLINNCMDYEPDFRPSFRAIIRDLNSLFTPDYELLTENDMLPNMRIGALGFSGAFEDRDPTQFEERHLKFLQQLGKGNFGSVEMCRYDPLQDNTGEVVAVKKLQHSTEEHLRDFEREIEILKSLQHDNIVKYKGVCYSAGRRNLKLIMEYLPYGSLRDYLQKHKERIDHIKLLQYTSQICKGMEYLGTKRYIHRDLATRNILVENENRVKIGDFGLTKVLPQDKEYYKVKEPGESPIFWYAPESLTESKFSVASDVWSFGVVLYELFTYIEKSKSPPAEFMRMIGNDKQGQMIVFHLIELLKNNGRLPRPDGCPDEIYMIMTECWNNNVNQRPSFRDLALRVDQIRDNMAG

Structure (SMILES)	Ki [1]	Ki [2]	Ki [3]	Ki [4]
Cc1cc(Nc2cc(N3CC(F)(C4CC4)C3)nc(O[C@H]3CCN(C(=O)OC(C)(C)C)C3)n2)[nH]n1	< 500 nM	< 100 nM	< 500 nM	< 10 nM
Cc1cc(Nc2cc(N3CCC3)nc(O[C@H]3CCN(C(=O)OC(C)(C)C)C3)n2)[nH]n1	< 500 nM		< 500 nM	
Cc1cc(Nc2cc(N3CC(F)(C4CC4)C3)nc(O[C@H]3CCN(C(=O)c4cc(Cl)ccc4F)C3)n2)n[nH]1 [MK-6592]		< 100 nM		< 10 nM
